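1) Cells in 96-well plates. 2) Compound, 48 h, 5 concentrations. 3) Linear interpolation between surrounding doses. 4) Unreached endpoint = highest concentration. GI50: concentration for 50% inhibition of growth.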 Activity calls are given as the source filed them. Rule as the data show it: active = GI50 up to about 1.1 µM and inactive = higher.
Assays:
Assay in all cases: growth of human tumour cells (NCI), 48 h
DLD-1 = system: DLD-1
DMS-273 = system: DMS-273
SF-268 = system: SF-268
ACHN = system: ACHN
HOP-18 = system: HOP-18
COLO 205 = system: COLO 205
M14 = system: M14
SN12C = system: SN12C
HL-60 = system: HL-60
SF-539 = system: SF-539
CAKI-1 = system: CAKI-1
RXF 393 = system: RXF 393
U-251 = system: U-251
SW-620 = system: SW-620
SNB-78 = system: SNB-78
HCT-15 = system: HCT-15
LXFL 529 = system: LXFL 529
NCI-H23 = system: NCI-H23
CCRF-CEM = system: CCRF-CEM
M19-MEL = system: M19-MEL
A549 = system: A549
UACC-62 = system: UACC-62
MOLT-4 = system: MOLT-4
XF498 = system: XF498
UO-31 = system: UO-31
EKVX = system: EKVX
UACC-257 = system: UACC-257
SK-MEL-28 = system: SK-MEL-28
OVCAR-5 = system: OVCAR-5
SK-OV-3 = system: SK-OV-3
SK-MEL-2 = system: SK-MEL-2
HOP-62 = system: HOP-62
KM12 = system: KM12
TK-10 = system: TK-10
DMS-114 = system: DMS-114
LOX IMVI = system: LOX IMVI
SK-MEL-5 = system: SK-MEL-5
IGROV-1 = system: IGROV-1
OVCAR-8 = system: OVCAR-8
A498 = system: A498
RPMI-8226 = system: RPMI-8226
SF-295 = system: SF-295
HCC 2998 = system: HCC 2998
K562 = system: K562
OVCAR-3 = system: OVCAR-3
HOP-92 = system: HOP-92
SNB-75 = system: SNB-75
SNB-19 = system: SNB-19
Malme-3M = system: Malme-3M
KM-20L2 = system: KM-20L2
786-0 = system: 786-0
OVCAR-4 = system: OVCAR-4
NCI-H226 = system: NCI-H226
NCI/ADR-RES = system: NCI/ADR-RES
BT-549 = system: BT-549
DU-145 = system: DU-145
MCF7 = system: MCF7
Hs-578T = system: Hs-578T
SR = system: SR
NCI-H460 = system: NCI-H460
MDA-MB-231 = system: MDA-MB-231
NCI-H522 = system: NCI-H522
PC-3 = system: PC-3
MDA-N = system: MDA-N
HT-29 = system: HT-29
T47D = system: T47D
HCT-116 = system: HCT-116
MDA-MB-435 = system: MDA-MB-435

CCCC1(CC(=O)O)OCCc2c1[nH]c1ccccc21 (stereo not given) [PRODOLIC ACID]
GI50 (DLD-1): > 100 µM (inactive) | GI50 (DMS-273): > 100 µM (inactive) | GI50 (SF-268): > 100 µM (inactive) | GI50 (ACHN): > 100 µM (inactive) | GI50 (HOP-18): > 100 µM (inactive) | GI50 (COLO 205): > 100 µM (inactive) | GI50 (M14): > 100 µM (inactive) | GI50 (SN12C): > 100 µM (inactive) | GI50 (HL-60): > 100 µM (inactive) | GI50 (SF-539): > 100 µM (inactive) | GI50 (CAKI-1): > 100 µM (inactive) | GI50 (RXF 393): > 100 µM (inactive) | GI50 (U-251): > 100 µM (inactive) | GI50 (SW-620): > 100 µM (inactive) | GI50 (SNB-78): > 100 µM (inactive) | GI50 (HCT-15): > 100 µM | GI50 (LXFL 529): > 100 µM (inactive) | GI50 (NCI-H23): > 100 µM (inactive) | GI50 (CCRF-CEM): > 100 µM (inactive) | GI50 (M19-MEL): > 100 µM (inactive) | GI50 (A549): > 100 µM (inactive) | GI50 (UACC-62): > 100 µM (inactive) | GI50 (MOLT-4): > 100 µM (inactive) | GI50 (XF498): > 100 µM (inactive) | GI50 (UO-31): > 100 µM (inactive) | GI50 (EKVX): > 100 µM (inactive) | GI50 (UACC-257): > 100 µM (inactive) | GI50 (SK-MEL-28): > 100 µM (inactive) | GI50 (OVCAR-5): > 100 µM (inactive) | GI50 (SK-OV-3): > 100 µM (inactive) | GI50 (SK-MEL-2): > 100 µM (inactive) | GI50 (HOP-62): > 100 µM (inactive) | GI50 (KM12): > 100 µM (inactive) | GI50 (TK-10): > 100 µM (inactive) | GI50 (DMS-114): > 100 µM (inactive) | GI50 (LOX IMVI): > 100 µM (inactive) | GI50 (SK-MEL-5): > 100 µM (inactive) | GI50 (IGROV-1): > 100 µM (inactive) | GI50 (OVCAR-8): > 100 µM (inactive) | GI50 (A498): > 100 µM (inactive) | GI50 (RPMI-8226): > 100 µM (inactive) | GI50 (SF-295): > 100 µM (inactive) | GI50 (HCC 2998): > 100 µM (inactive) | GI50 (K562): > 100 µM (inactive) | GI50 (OVCAR-3): > 100 µM (inactive) | GI50 (HOP-92): > 100 µM (inactive) | GI50 (SNB-75): 69.3 µM (inactive) | GI50 (SNB-19): > 100 µM (inactive) | GI50 (Malme-3M): > 100 µM (inactive) | GI50 (KM-20L2): > 100 µM (inactive) | GI50 (786-0): > 100 µM (inactive) | GI50 (OVCAR-4): > 100 µM (inactive) | GI50 (NCI-H226): > 100 µM (inactive)

COc1ccc(Br)c2c1CC(C(=O)O)CC2 (stereo not given)
GI50 (DLD-1): > 100 µM (inactive) | GI50 (NCI/ADR-RES): > 100 µM (inactive) | GI50 (DMS-273): > 100 µM (inactive) | GI50 (BT-549): > 100 µM (inactive) | GI50 (SF-268): > 100 µM (inactive) | GI50 (ACHN): > 100 µM (inactive) | GI50 (HOP-18): > 100 µM (inactive) | GI50 (COLO 205): > 100 µM (inactive) | GI50 (M14): > 100 µM (inactive) | GI50 (SN12C): > 100 µM (inactive) | GI50 (DU-145): > 100 µM (inactive) | GI50 (HL-60): > 100 µM (inactive) | GI50 (MCF7): > 100 µM (inactive) | GI50 (SF-539): > 100 µM (inactive) | GI50 (CAKI-1): > 100 µM (inactive) | GI50 (RXF 393): > 100 µM (inactive) | GI50 (U-251): > 100 µM (inactive) | GI50 (SW-620): > 100 µM (inactive) | GI50 (Hs-578T): > 100 µM (inactive) | GI50 (SNB-78): > 100 µM (inactive) | GI50 (HCT-15): > 100 µM | GI50 (LXFL 529): > 100 µM (inactive) | GI50 (NCI-H23): > 100 µM (inactive) | GI50 (CCRF-CEM): > 100 µM (inactive) | GI50 (SR): > 54 µM (inactive) | GI50 (NCI-H460): > 100 µM (inactive) | GI50 (A549): > 100 µM (inactive) | GI50 (UACC-62): > 100 µM (inactive) | GI50 (MDA-MB-231): > 100 µM (inactive) | GI50 (MOLT-4): > 100 µM (inactive) | GI50 (XF498): > 100 µM (inactive) | GI50 (UO-31): > 100 µM (inactive) | GI50 (NCI-H522): > 100 µM (inactive) | GI50 (EKVX): > 100 µM (inactive) | GI50 (PC-3): > 100 µM (inactive) | GI50 (MDA-N): > 100 µM (inactive) | GI50 (UACC-257): > 100 µM (inactive) | GI50 (SK-MEL-28): > 100 µM (inactive) | GI50 (OVCAR-5): > 100 µM (inactive) | GI50 (SK-OV-3): > 100 µM (inactive) | GI50 (SK-MEL-2): > 100 µM (inactive) | GI50 (HT-29): > 100 µM (inactive) | GI50 (HOP-62): > 100 µM (inactive) | GI50 (KM12): > 100 µM (inactive) | GI50 (TK-10): > 100 µM (inactive) | GI50 (DMS-114): > 100 µM (inactive) | GI50 (LOX IMVI): > 100 µM (inactive) | GI50 (SK-MEL-5): > 100 µM (inactive) | GI50 (IGROV-1): > 100 µM (inactive) | GI50 (OVCAR-8): > 100 µM (inactive) | GI50 (A498): > 100 µM (inactive) | GI50 (RPMI-8226): > 100 µM (inactive) | GI50 (SF-295): > 100 µM (inactive) | GI50 (HCC 2998): > 100 µM (inactive) | GI50 (T47D): > 100 µM (inactive) | GI50 (K562): > 100 µM (inactive) | GI50 (OVCAR-3): > 100 µM (inactive) | GI50 (HOP-92): > 78.5 µM (inactive) | GI50 (SNB-75): > 100 µM (inactive) | GI50 (SNB-19): > 100 µM (inactive) | GI50 (Malme-3M): > 100 µM (inactive) | GI50 (HCT-116): > 100 µM (inactive) | GI50 (KM-20L2): > 100 µM (inactive) | GI50 (786-0): > 100 µM (inactive) | GI50 (OVCAR-4): > 100 µM (inactive) | GI50 (NCI-H226): > 100 µM (inactive) | GI50 (MDA-MB-435): > 100 µM (inactive)

COc1ccc(C2Oc3ccc(O)cc3[C@@H]2C)cc1OC (stereo not given in full)
GI50 (DLD-1): > 100 µM (inactive) | GI50 (DMS-273): > 100 µM (inactive) | GI50 (SF-268): > 100 µM (inactive) | GI50 (ACHN): > 100 µM (inactive) | GI50 (HOP-18): > 100 µM (inactive) | GI50 (COLO 205): > 100 µM (inactive) | GI50 (M14): > 100 µM (inactive) | GI50 (HL-60): 34.3 µM (inactive) | GI50 (SF-539): > 100 µM (inactive) | GI50 (CAKI-1): 18.9 µM (inactive) | GI50 (RXF 393): 58.5 µM (inactive) | GI50 (U-251): > 100 µM (inactive) | GI50 (SW-620): > 100 µM (inactive) | GI50 (SNB-78): > 100 µM (inactive) | GI50 (HCT-15): 52.6 µM | GI50 (LXFL 529): 71 µM (inactive) | GI50 (NCI-H23): 94.6 µM (inactive) | GI50 (CCRF-CEM): 17.5 µM (inactive) | GI50 (NCI-H460): > 100 µM (inactive) | GI50 (M19-MEL): > 100 µM (inactive) | GI50 (A549): > 100 µM (inactive) | GI50 (UACC-62): > 100 µM (inactive) | GI50 (MOLT-4): 37.6 µM (inactive) | GI50 (XF498): > 100 µM (inactive) | GI50 (UO-31): 63.1 µM (inactive) | GI50 (NCI-H522): 27.5 µM (inactive) | GI50 (EKVX): > 100 µM (inactive) | GI50 (UACC-257): > 100 µM (inactive) | GI50 (SK-MEL-28): > 100 µM (inactive) | GI50 (OVCAR-5): > 100 µM (inactive) | GI50 (SK-OV-3): > 100 µM (inactive) | GI50 (SK-MEL-2): > 100 µM (inactive) | GI50 (HT-29): > 100 µM (inactive) | GI50 (HOP-62): > 100 µM (inactive) | GI50 (KM12): > 100 µM (inactive) | GI50 (TK-10): > 100 µM (inactive) | GI50 (DMS-114): 59.8 µM (inactive) | GI50 (LOX IMVI): > 100 µM (inactive) | GI50 (SK-MEL-5): 48.5 µM (inactive) | GI50 (IGROV-1): > 100 µM (inactive) | GI50 (OVCAR-8): > 100 µM (inactive) | GI50 (RPMI-8226): 4.05 µM (inactive) | GI50 (SF-295): > 100 µM (inactive) | GI50 (HCC 2998): > 100 µM (inactive) | GI50 (K562): > 100 µM (inactive) | GI50 (OVCAR-3): > 100 µM (inactive) | GI50 (HOP-92): 23 µM (inactive) | GI50 (SNB-75): 30.2 µM (inactive) | GI50 (SNB-19): > 100 µM (inactive) | GI50 (Malme-3M): > 100 µM (inactive) | GI50 (HCT-116): > 100 µM (inactive) | GI50 (KM-20L2): > 100 µM (inactive) | GI50 (786-0): > 100 µM (inactive) | GI50 (OVCAR-4): 97.7 µM (inactive) | GI50 (NCI-H226): > 100 µM (inactive)

— ChEMBL document CHEMBL1201862, “PubChem BioAssay data set” (2004)
